TGI data for twelve compounds are collected here from PubChem BioAssay (NCI).

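Where inhibition never reached the appropriate level, the endpoint shown equals the highest concentration tested. Otherwise, values were interpolated linearly from a five-concentration, 48-hour dose response in 96-well plates. TGI denotes the concentration required for complete inhibition of growth.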

Some test systems named below: MOLT-4 leukemia; IGROV1 ovarian; HL-60(TB) leukemia; DU-145 prostate; SF-268 CNS; U251 CNS; HOP-62 NSCLC; SK-MEL-28 melanoma; HT29 colon; COLO 205 colon.
Common to all, as to assay: DTP human tumour cell line panel, 48 h

For `O=C(/C=C/c1ccc(Oc2cc(C(=O)/C=C/c3ccc(O)cc3)c(O)cc2O)cc1)c1ccc(O)cc1O`, the TGI is over 100 µM with MOLT-4 leukemia; 11.3 µM in the test with IGROV1 ovarian; over 100 µM in the test with HL-60(TB) leukemia; 12.8 µM with DU-145 prostate; 28.3 µM in the test on SF-268 CNS; 20.7 µM in the test with U251 CNS. Further, the TGI in the test on HOP-62 NSCLC amounted to 15.5 µM; in the test with SK-MEL-28 melanoma, 7.07 µM; in the test with HT29 colon, 3.57 µM; with COLO 205 colon, 6.08 µM.

In the case of `CON(C)c1nc(N(C)OC)nc(N(C)OC)n1`, the TGI in the test on MOLT-4 leukemia, with IGROV1 ovarian, in the test on HL-60(TB) leukemia, in the test with DU-145 prostate, in the test on SF-268 CNS and with U251 CNS was over 10 µM each time. The TGI in the test on HOP-62 NSCLC, in the test with SK-MEL-28 melanoma, with HT29 colon and in the test with COLO 205 colon was over 10 µM each time.

Regarding `O=c1c2cc(S(=O)(=O)O)ccc2nc(COc2ccc(Oc3ccc(Cl)cc3Cl)cc2)n1-c1ccc(Oc2ccc(Cl)cc2)cc1Cl`, the TGI with MOLT-4 leukemia is 94.9 µM; with IGROV1 ovarian, 66.2 µM; in the test on HL-60(TB) leukemia it was 76 µM; with DU-145 prostate it was over 100 µM; in the test with SF-268 CNS it was 26 µM; in the test with U251 CNS it was 30.1 µM. In addition, the TGI in the test with HOP-62 NSCLC is 46 µM; with HT29 colon, 36 µM; in the test on COLO 205 colon, 34 µM.

With `Cn1c(-c2ccccc2)cc(-c2cccs2)c1-c1cccs1`, the TGI with MOLT-4 leukemia, with IGROV1 ovarian, in the test on HL-60(TB) leukemia, with SF-268 CNS, in the test with U251 CNS and in the test on HOP-62 NSCLC was over 100 µM throughout. Besides, the TGI in the test on SK-MEL-28 melanoma, in the test on HT29 colon and in the test with COLO 205 colon was over 100 µM in each case.

In the case of `Cc1cc(C)nc(NS(=O)(=O)c2ccc(NC(=O)c3cccc4c(Nc5ccc(S(=O)(=O)Nc6cc(C)on6)cc5)c5ccccc5nc34)cc2)n1`, the TGI worked out at 86.4 µM in the test with MOLT-4 leukemia; 68.4 µM with HL-60(TB) leukemia; 65.2 µM in the test on SF-268 CNS; 40.2 µM in the test with U251 CNS; 45.4 µM in the test with HOP-62 NSCLC; 50 µM in the test with SK-MEL-28 melanoma. The TGI with HT29 colon was 46.7 µM.

With `CC(C)C(C(=O)O)N1C(=O)c2ccccc2C1=O` (centres undefined), the TGI with MOLT-4 leukemia, in the test on IGROV1 ovarian, with HL-60(TB) leukemia, with DU-145 prostate, in the test on SF-268 CNS and in the test on U251 CNS was over 100 µM each time. Besides, the TGI with HOP-62 NSCLC, in the test on SK-MEL-28 melanoma, in the test with HT29 colon and in the test on COLO 205 colon was over 100 µM throughout.

With `COC(=O)c1c(C)n([O-])c2cc(Cl)c(Cl)cc2[n+]1=O`, the TGI in the test on MOLT-4 leukemia was 84.5 µM; with IGROV1 ovarian, 19.9 µM; in the test with HL-60(TB) leukemia it was 50.2 µM; with DU-145 prostate, 38.4 µM; in the test on SF-268 CNS it was over 100 µM; with U251 CNS it was over 100 µM. The TGI in the test on HOP-62 NSCLC is over 100 µM; in the test with SK-MEL-28 melanoma, 92.1 µM; in the test on HT29 colon it was 51.6 µM; with COLO 205 colon it was 25.8 µM.

Regarding `CC12C=CC(=O)C=C1CCC1C3CCC(O)(C(=O)CO)C3(C)CC(O)C12F` (centres undefined), the TGI in the test with MOLT-4 leukemia, with IGROV1 ovarian, with HL-60(TB) leukemia, in the test on DU-145 prostate, in the test on SF-268 CNS and with U251 CNS was over 100 µM throughout. In addition, the TGI with HOP-62 NSCLC, in the test on SK-MEL-28 melanoma, in the test with HT29 colon and in the test on COLO 205 colon was over 100 µM each time.

Regarding `C[N+](C)(C)c1ncnc2c1ncn2C1CC(O)C(CO)O1` (centres undefined), the TGI in the test on MOLT-4 leukemia, in the test with IGROV1 ovarian, with HL-60(TB) leukemia, in the test with DU-145 prostate, with SF-268 CNS and in the test with U251 CNS was over 100 µM throughout. In addition, the TGI in the test on HOP-62 NSCLC, with SK-MEL-28 melanoma, in the test on HT29 colon and in the test on COLO 205 colon was over 100 µM each time.

Regarding `CCCC1CCC(=C2C(=O)CCC2=O)O1` (centres undefined), the TGI with MOLT-4 leukemia, with IGROV1 ovarian, in the test with HL-60(TB) leukemia, with DU-145 prostate, with SF-268 CNS and in the test with U251 CNS was over 100 µM each time. Also, the TGI in the test on HOP-62 NSCLC, in the test on SK-MEL-28 melanoma, with HT29 colon and in the test with COLO 205 colon was over 100 µM throughout.

Consider `COC(=O)C1=C(OC(=O)/C(=C/c2ccc(Cl)cc2)c2ccc(Cl)cc2)C(C(=O)OC)[C@]2(O)[C@@H](C(=O)OC)[C@H]1C[C@@H](c1ccccc1)[C@@H]2C(=O)OC` (some centres undefined), for which the TGI in the test on MOLT-4 leukemia, with IGROV1 ovarian, in the test on HL-60(TB) leukemia, in the test with DU-145 prostate, in the test on SF-268 CNS and in the test with U251 CNS was over 100 µM throughout. Besides, the TGI in the test with HOP-62 NSCLC, with SK-MEL-28 melanoma, in the test with HT29 colon and in the test with COLO 205 colon was over 100 µM each time.

With `CC(N)Cc1ccc(Cl)c(Cl)c1` (centres undefined), the TGI with MOLT-4 leukemia was 71.2 µM; in the test on IGROV1 ovarian, over 100 µM; with HL-60(TB) leukemia, 42.4 µM; in the test with SF-268 CNS, over 100 µM; with U251 CNS it was over 89.6 µM; with HOP-62 NSCLC, over 100 µM. In addition, the TGI with SK-MEL-28 melanoma was determined as 39.1 µM; with HT29 colon, 56.5 µM; with COLO 205 colon, 36.5 µM.
